Test system: class I antigen presentation gene expression in MCC cell lines
Experiment: RNA-seq / DESeq2 differential expression of MCC cell lines at baseline and after IFN-γ stimulation
Type: cell-based, human
Description: FIG. 2A comprises RNA-seq heatmaps of class I antigen presentation gene expression in MCC lines and controls.
FIG. 2B is a volcano plot of differentially expressed genes (genes below FDR cutoff 0.01 are shown in yellow) between baseline and IFN-γ-treated MCC cell lines. Differential expression analysis was performed using DESeq2, and negative LFC indicates increased expression in +IFN-γ samples. IFN genes are highlighted in red.
RNA samples were first assessed for quality using the Agilent Bioanalyzer (DV200 metric). One hundred ng of RNA were used as the input for first strand cDNA synthesis using Superscript III reverse transcriptase and Illumina's TruSeq RNA Access Sample Prep Kit. Synthesis of the second strand of cDNA was followed by indexed adapter ligation with UMI (unique molecular index) adaptors. Subsequent PCR amplification enriched for adapted fragments. Amplified libraries were quantified, normalized, pooled, and hybridized with exome targeting oligos. Following hybridization, bead clean-up, elution and PCR was performed to prepare library pools for sequencing on Illumina flowcell lanes. Transcriptomes were sequenced to a coverage of at least 50 million reads in pairs.
Raw fastq files for fibroblast and keratinocyte control lines were downloaded from SRA using R Bioconductor package SRAdb (Mayakonda et al. (2018) supra; Zhu et al. (2013) BMC Bioinformatics 14 (1): 1-4) using accession codes SRP126422 (4 replicates from control samples ‘NN’) and SRP131347 (6 replicates with condition: control and genotype: control). These fastq files, along with those for the mkl1 and waga cell lines, were aligned using STAR version 2.7.3a (Dobin et al. (2013) Bioinformatics 29 (1): 15-21), using index genome reference file downloaded from ftp.ebi.ac.uk/pub/databases/gencode/Gencode_human/release_19/GRCh37.p13.genome.fa.gz, transcript annotation file downloaded from data.broadinstitute.org/snowman/hg19/star/gencode.v19.annotation.gtf, and with the following options: --twopassMode Basic, --outSAMstrandField intronMotif, --alignIntronMax 1000000, --alignMatesGapMax 1000000, --sjdbScore 2, --outSAMtype BAM Unsorted, --outSAMattributes NH HI NM MD AS XS, --outFilterType BySJout, --outSAMunmapped Within, --genomeLoad NoSharedMemory, --outFilterScoreMinOverLread 0, --outFilterMatchNminOverLread 0, --outFilterMismatchNmax 999, and outFilterMultimapNmax 20. Duplicates were marked with picard MarkDuplicates version 2.22.0-SNAPSHOT.
RNA-sequencing bam files for MCC tumor and cell line samples were downloaded from the Broad Genomics Firecloud/Terra platform using the Google Cloud Storage command line tool gsutil version 4.5 (github.com/GoogleCloudPlatform/gsutil/).
Gene counts were obtained from bam files using featureCounts version 2.0.0 (doi.org/10.1093/bioinformatics/btt656). Very lowly expressed genes with average count across samples less than 1 were excluded from analysis. Between-sample distance metrics were computed using the Euclidean distance on the vectors of variance-stabilized counts obtained from the vst function in the DESeq2 R Bioconductor package ([…]; Love et al. (2014) Genome Biology 15 (12): 550).
Differential expression analysis was carried out between (1) viral positive and viral negative samples (adjusting for cell line or tumor as a covariate), (2) cell line and tumor samples (adjusting for viral status as a covariate), and (3) IFNγ plus and minus samples (adjusting for viral status as a covariate) using the negative binomial GLM Wald test of DESeq2, where significance was assessed using the p-values adjusted for multiple comparisons under default settings. To account for potential global gene expression differences among sample groups, RUVg (Risso et al. (2014) […] 32 (9): 896-902) was used to estimate latent factors of unwanted variation from the list of housekeeping genes downloaded from www.tau.ac.il/˜elieis/HKG/HK_genes.txt. […]

[1] = 11 MCC cell lines, baseline vs IFNγ, negative LFC = upregulation in IFNγ-treated

In the case of “IFN-y: type II interferon, recombinant human, used to treat MCC cells”, the “class I genes mRNA expression (RNA-seq)” value (10 of 11 MCC lines, baseline vs treated) is reported as “markedly upregulated”, the “log2FoldChange ACSL5 (ENSG00000197142.6)” value [1] is reported as −5.831 and the “log2FoldChange ADAR (ENSG00000160710.11)” value [1] is reported as −1.068. The “log2FoldChange ADGRF3 (ENSG00000173567.10)” value [1] was −0.853, the “log2FoldChange ATP2C1 (ENSG00000017260.15)” value [1] was −0.5502 and the “log2FoldChange ATP10D (ENSG00000145246.9)” value [1] was −2.417. The “log2FoldChange AZIN2 (ENSG00000142920.12)” value [1] was −1.224, the “log2FoldChange BATF2 (ENSG00000168062.5)” value [1] was −7.362 and the “log2FoldChange BCL2L14 (ENSG00000121380.8)” value [1] was −5.59. For the same substance, the “log2FoldChange BCL6 (ENSG00000113916.13)” value [1] was −2.953, the “log2FoldChange BTN2A1 (ENSG00000112763.11)” value [1] was −0.9873 and the “log2FoldChange BTN2A3P (ENSG00000124549.10)” value [1] was −4.459. For the same substance, the “log2FoldChange BTN3A1 (ENSG00000026950.12)” value [1] was −6.582, the “log2FoldChange BTN3A2 (ENSG00000186470.9)” value [1] was −6.089 and the “log2FoldChange BTN3A3 (ENSG00000111801.11)” value [1] was −6.93. For the same substance, the “log2FoldChange C1QB (ENSG00000173369.11)” value [1] was −3.233, the “log2FoldChange C2 (ENSG00000166278.10)” value [1] was −4.096 and the “log2FoldChange C4A (ENSG00000244731.3)” value [1] was −1.245. For the same substance, the “log2FoldChange C4B (ENSG00000224389.4)” value [1] was −2.248, the “log2FoldChange C5orf56 (ENSG00000197536.6)” value [1] was −3.71 and the “log2FoldChange CARD16 (ENSG00000204397.3)” value [1] was −6.289. The “log2FoldChange CASC6 (ENSG00000224944.1)” value [1] was −3.263, the “log2FoldChange CASP1 (ENSG00000137752.18)” value [1] was −7.907 and the “log2FoldChange CASP4 (ENSG00000196954.8)” value [1] was −4.024. For the same substance, the “log2FoldChange CASP7 (ENSG00000165806.15)” value [1] was −1.833, the “log2FoldChange CCDC73 (ENSG00000186714.8)” value [1] was −2.84 and the “log2FoldChange CCND1 (ENSG00000110092.3)” value [1] was −5.698. The “log2FoldChange CD74 (ENSG00000019582.10)” value [1] was −8.494, the “log2FoldChange CD274 (ENSG00000120217.9)” value [1] was −6.119 and the “log2FoldChange CDC20 (ENSG00000117399.9)” value [1] was 0.6763. The “log2FoldChange CFB (ENSG00000243649.4)” value [1] was −7.333, the “log2FoldChange CIR1 (ENSG00000138433.11)” value [1] was −0.5344 and the “log2FoldChange CLVS1 (ENSG00000177182.6)” value [1] was −3.934. The “log2FoldChange CMPK2 (ENSG00000134326.7)” value [1] was −2.83, the “log2FoldChange CSF1 (ENSG00000184371.9)” value [1] was −3.741 and the “log2FoldChange CTSO (ENSG00000256043.2)” value [1] was −3.005. The “log2FoldChange CXCL9 (ENSG00000138755.5)” value [1] was −11.74, the “log2FoldChange CXCL10 (ENSG00000169245.4)” value [1] was −5.89 and the “log2FoldChange CXCL11 (ENSG00000169248.8)” value [1] was −4.672. The “log2FoldChange DDO (ENSG00000203797.5)” value [1] was −4.692, the “log2FoldChange DDX58 (ENSG00000107201.5)” value [1] was −2.939 and the “log2FoldChange DDX60 (ENSG00000137628.12)” value [1] was −7.298. For the same substance, the “log2FoldChange DDX60L (ENSG00000181381.9)” value [1] was −3.461, the “log2FoldChange DNPEP (ENSG00000123992.14)” value [1] was −1.703 and the “log2FoldChange DTX3L (ENSG00000163840.5)” value [1] was −4.603. For the same substance, the “log2FoldChange EIF2AK2 (ENSG00000055332.12)” value [1] was −1.367, the “log2FoldChange ENSG00000121848.9 (symbol NA)” value [1] was −0.3499 and the “log2FoldChange ENSG00000197146.2 (symbol NA)” value [1] was −1.6. The “log2FoldChange ENSG00000202533.1 (symbol NA)” value [1] was −3.684, the “log2FoldChange ENSG00000213500.3 (symbol NA)” value [1] was −2.007 and the “log2FoldChange ENSG00000224666.2 (symbol NA)” value [1] was −5.276. The “log2FoldChange ENSG00000224789.1 (symbol NA)” value [1] was −2.338, the “log2FoldChange ENSG00000225931.3 (symbol NA)” value [1] was −4.205 and the “log2FoldChange ENSG00000229023.1 (symbol NA)” value [1] was −4.669. For the same substance, the “log2FoldChange ENSG00000229677.1 (symbol NA)” value [1] was −2.162, the “log2FoldChange ENSG00000230812.1 (symbol NA)” value [1] was −5.173 and the “log2FoldChange ENSG00000231280.1 (symbol NA)” value [1] was −5.122. The “log2FoldChange ENSG00000232709.1 (symbol NA)” value [1] was −3.863, the “log2FoldChange ENSG00000233892.1 (symbol NA)” value [1] was −1.246 and the “log2FoldChange ENSG00000234290.2 (symbol NA)” value [1] was −2.28. For the same substance, the “log2FoldChange ENSG00000238000.1 (symbol NA)” value [1] was −1.895, the “log2FoldChange ENSG00000238160.1 (symbol NA)” value [1] was −3.274 and the “log2FoldChange ENSG00000238991.1 (symbol NA)” value [1] was −3.733. The “log2FoldChange ENSG00000245025.2 (symbol NA)” value [1] was −3.838, the “log2FoldChange ENSG00000248693.1 (symbol NA)” value [1] was −3.648 and the “log2FoldChange ENSG00000252206.1 (symbol NA)” value [1] was −2.445. The “log2FoldChange ENSG00000260336.1 (symbol NA)” value [1] was −2.736, the “log2FoldChange ENSG00000261618.1 (symbol NA)” value [1] was −6.277 and the “log2FoldChange ENSG00000271581.1 (symbol NA)” value [1] was −4.138. For the same substance, the “log2FoldChange ENSG00000271646.1 (symbol NA)” value [1] was −1.853, the “log2FoldChange ENSG00000272941.1 (symbol NA)” value [1] was −7.747 and the “log2FoldChange ERAP1 (ENSG00000164307.8)” value [1] was −2.331. The “log2FoldChange ERAP2 (ENSG00000164308.12)” value [1] was −3.931, the “log2FoldChange ETV7 (ENSG00000010030.9)” value [1] was −5.205 and the “log2FoldChange FAM110C (ENSG00000184731.5)” value [1] was −3.465. For the same substance, the “log2FoldChange FAM111A (ENSG00000166801.11)” value [1] was −2.679, the “log2FoldChange FAM186B (ENSG00000135436.4)” value [1] was −1.748 and the “log2FoldChange FAS (ENSG00000026103.15)” value [1] was −2.315.
